“Also recorded” adds a separate entry of the source.
Experiments:
[1] = molecular target: T1, CLK1 (Homo sapiens, UniProt P49759); assay: Coupled-enzyme (PK/LDH) kinase inhibition assay; assay type: biochemical; details: 0.1 mM ATP, 25°C; average from three independent experiments
T1 construct: the kinase domains of human CLK1 (residues: 148–484 (C terminus)); hexahistidine tag (TEV-cleavable) (cleaved yes); made in house; host or cells: E. coli BL21(DE3)
Description: The consensus peptide for CLK1 ([…]) and the DYRK1A substrate peptide ([…]-amide) were used as substrates at a concentration of 100 μM. Inhibitors, dissolved in DMSO, were added at the beginning of the preincubation period resulting in a final DMSO concentration of 2% in the assay. Kinetic analysis was performed by nonlinear regression fitting using GraphPad Prism 5 and least-squares fits to sigmoidal dose response curves with variable slope equation: Y=min+max−min/1+10^(logEC50−x)Hillslope, where max and min corresponds to maximal and minimal absorbance value.

[2] = test system: phosphorylated SR proteins in HMEC-1 cells; assay: SR protein phosphorylation, western blotting; assay type: cell-based, human
Description: Western blot analysis of samples from cell lysates of inhibited, stimulated, and unstimulated HMEC-1 cells were performed as previously described ([Szotowski et al., 2005]). For detection of phosphorylated SR proteins, monoclonal antibody mAb1H4 (Invitrogen GmbH, Karlsruhe, Germany) was used.

[3] = test system: flTF and asHTF mRNA in HMEC-1 cells; assay: TF isoform mRNA expression (RT-PCR)
Description: For inhibition experiments, HMEC-1 endothelial cells were switched to EC basal medium (without fetal calf serum) for 1 hr. […] Analysis of the TF isoform mRNA expression was done 1 hr post stimulation with TNF-α and assessment of the phosphorylation state of SR proteins by western blotting was performed 2 min post induction of the cells. Positive controls were stimulated only with TNF-α, and negative controls were untreated.

T1 sequence (P49759 148-484): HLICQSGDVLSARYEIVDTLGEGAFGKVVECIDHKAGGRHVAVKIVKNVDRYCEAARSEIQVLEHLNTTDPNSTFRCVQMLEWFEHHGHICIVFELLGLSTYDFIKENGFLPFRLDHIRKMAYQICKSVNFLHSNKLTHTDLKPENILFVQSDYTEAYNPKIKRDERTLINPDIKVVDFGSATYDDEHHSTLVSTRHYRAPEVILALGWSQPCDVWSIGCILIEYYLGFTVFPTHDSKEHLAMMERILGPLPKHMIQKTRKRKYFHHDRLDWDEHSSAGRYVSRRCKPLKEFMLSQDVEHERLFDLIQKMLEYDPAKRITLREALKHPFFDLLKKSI

| IC50 [1] [nM] | SMILES | TNF-α-induced phosphorylation of SR proteins ([2]; HMEC-1, 10 μM inhibitor pretreatment, 10 ng/ml TNF-α, 2 min post stimulation) | Phosphorylation state of SR proteins, nonstimulated cells ([2]; HMEC-1, 10 μM inhibitor, basal conditions) | Dose response of SRp75 and SRp55 phosphorylation ([2]; TNF-α-stimulated HMEC-1, increasing inhibitor concentration) | TNF-α-induced mRNA expression of flTF and asHTF ([3]; HMEC-1, 10 μM inhibitor, 10 ng/ml TNF-α, 1 hr post stimulation) | Basal mRNA expression of flTF and asHTF ([3]; resting HMEC-1, 10 μM inhibitor) |
| --- | --- | --- | --- | --- | --- | --- |
| 8.9 ± 3 | Nc1nc(Nc2ccc(S(N)(=O)=O)cc2)nn1C(=S)Nc1c(F)cccc1F [K00546] | – | – | – | – | – |
| – | CCN1/C(=C/C(C)=O)Sc2ccc(OC)cc21 [TG003] | reduction of the TNF-α-induced increase in phosphorylation of all analyzed SR proteins | only reduced the phosphorylation of SRp20; also recorded: no effect on the phosphorylation state of other SR proteins | little effect on SRp75 and SRp55 phosphorylation | only slightly reduced mRNA expression in TNF-α-induced cells | reduced the basal expression of flTF and asHTF mRNA |
